Test results: patent US20020177580A1, “Means and method for hormonal contraception” (priority 2001, published 2002)
Entries after “also recorded” stand apart in the source; their conditions may differ.

What was measured:
[1] = hormone replacement therapy with 17beta-estradiol dydrogesterone (Grisar et al., 1999); cited from earlier work
ovulation = settings: humans; reported by Claassen et al., Acta Endocrinologica (1967); cited from earlier work
[2] = compared with commercially used synthetic progestogens; cited from earlier work
women = test: Clinical study with dydrogesterone as progestogen-only preparation (Example 5); format: in vivo, human; settings: 20 mg dydrogesterone once a day, uninterruptedly for 4 months
From the text: Women participating in the study described in these examples are all selected on the basis that they are users of ‘high’ dose monophasic ethinyl estradiol-containing combined oral contraceptives. The reasons for applying this selection criterion is that there is a dose-relationship between follicular development and ethinyl estradiol whether given alone or in combination with a progestogen, i.e. less follicular development in the presence of the higher dose. Participation of the females involved in the study starts at a moment of (almost) complete suppression of follicular development. This condition is not met if a female has her first day of bleeding in a natural cycle, after a tablet-free interval, or immediately after a low-dose combined oral contraceptive.
A clinical study with dydrogesterone as a progestogen-only preparation is conducted in 8 women who were selected on the basis of the criteria mentioned in Example 1. The 8 women receive a 20 mg dosage of dydrogesterone once a day, uninterruptedly during a period of 4 months.

CC(=O)[C@H]1CC[C@H]2[C@@H]3C=CC4=CC(=O)CC[C@@]4(C)[C@@H]3CC[C@]12C [dydrogesterone, 9β,10α-pregna-4,6-diene-3,20-dione]
adverse effects on blood pressure [1]: no adverse effects on blood pressure
inhibition of ovulation (ovulation): cannot be used to inhibit ovulation; also recorded: does not inhibit ovulation in humans
estrogenic, glucocorticoid, anabolic or androgenic properties [2]: does not exhibit estrogenic, glucocorticoid, anabolic or androgenic properties
irregular bleeding (women): some unpredictable irregular bleeding
menses flow (women): reduction of the usual menses flow
ovulation inhibition (women): Ovulation is inhibited
